Results on one substance are retold here after patent US7655252B2 (priority 1999, dated 2010).

In the test the test system is Influenza virus A/AA/6/60. The test is classed as cell-based.

“t-octylphenoxypolyethoxyethanol [TRITON X-100]”: the “inhibition of the infectivity of virus” value is given as “only partially inhibited”. In addition, the “reduction of influenza A infection of MDCK cells” value (30 min) is recorded as “completely ineffective”.
